US6867305B2, “Synthesis of epothilones, intermediates thereto and analogues thereof” (Sloan-Kettering Institute for Cancer Research, priority 1996, dated 2005)

Key:
[1] = tested on: MCF-7/Adr mammary xenograft; test: Human tumor xenograft in nude mice; type: in vivo
[2] = tested on: MX-1 mammary carcinoma xenograft; conditions: MX-1, i.p., ref 19 (Table 4)
[3] = Body-weight decrease and lethality in tumor-bearing nude mice; conditions: nude mice
Method: (§1) Depending on the tumor type, treatment started on day 10 to day 21 when subcutaneous tumor size reached 35-200 mm^3, except otherwise indicated. Tumor size and body-weight were recorded every other day (Q2D) and, for humane reasons, the animals were sacrificed when tumor size reached ≧10% of body-weight. Each group, including untreated control, consisted of 3-5 animals unless otherwise indicated.
Essential features of useful cancer therapeutic agent involve not only high efficiency against cancer but also low toxicity toward the host, especially toward vital organs or functions [i.e. wide therapeutic window or high therapeutic index (LD50/ED50)].
(§2) Human tumor cells (5×10^6) or tumor tissue (30-50 mg) were implanted s.c. flank in nu/nu mice (Charles River Laboratories, Wilmington, Mass.). When tumor grew to a specified size, treatment was started by every-other day×5 with 6 hr i.v.-infusion, unless otherwise indicated. Tumor volume was measured with calipers in three dimensions (length×width×height or width). Body-weight changes and lethality were monitored every other day.

[4] = tested on: MX-1 human mammary carcinoma; test: Tumor cell growth inhibition in vitro; type: cell-based
Method: (§3) The cells were cultured at an initial density of 2-5×10^4 cells per ml. […] For solid tumor cells growing in a monolayer (such as MCF-7/Adr), cytotoxicitiy of the drug was determined in 96-well microtiter plates by using the sulforhodamine B method as described by Skehan et al (23) for measuring the cellular protein content. For cells that were grown in suspension (such as CCRF-CEM and its sublines), cytotoxicitiy was measured by using the 2,-3-bis(2-methoxy-4-nitro-5-sulfophenyl)-5carboxanilide)-2H terazodium hydroxide (XTT)-microculture tetrazonium method (24) in duplicate in 96-well microtiter plates. For both methods, the absorbance of each well was measured with a microplate reader (EL-340, Bio-Tek, Burlington, Vt.). Each run entailed six or seven concentrations of the tested drugs. Dose-effect relationship data were analyzed with the median-effect plot (25) by using a previously described computer program (26).

[5] = tested on: UL-3-C ovarian adenocarcinoma; test: Tumor cell growth inhibition in vitro; type: cell-based, human; conditions: read-out: IC50
Method: (§4) The fresh medium containing each drug was replenished every 7-14 days. […] In each case ,the drug-exposed cells were resuspended in fresh media for a minimum of 4 days before the experiments for the cell-growth inhibition was carried out.
(§5) The cells were cultured at an initial density of 2-5×10^4 cells per ml. They were maintained in a 5% CO2-humidified atmosphere at 37° C. in RPMI mediun 1640 (GIBCO/BRL) containing penicillin (100 units/ml), streptomycin (100 μg/ml) (GIBCO/BRL), and 5% heat-inactivated fetal bovine serum. For solid tumor cells growing in a monolayer (such as MCF-7/Adr), cytotoxicitiy of the drug was determined in 96-well microtiter plates by using the sulforhodamine B method as described by Skehan et al (23) for measuring the cellular protein content. For cells that were grown in suspension (such as CCRF-CEM and its sublines), cytotoxicitiy was measured by using the 2,-3-bis(2-methoxy-4-nitro-5-sulfophenyl)-5carboxanilide)-2H terazodium hydroxide (XTT)-microculture tetrazonium method (24) in duplicate in 96-well microtiter plates. For both methods, the absorbance of each well was measured with a microplate reader (EL-340, Bio-Tek, Burlington, Vt.). Each run entailed six or seven concentrations of the tested drugs. Dose-effect relationship data were analyzed with the median-effect plot (25) by using a previously described computer program (26).

B16 Melanoma = type: in vivo, murine; conditions: B16 Melanoma, i/p, maximal tolerated doses
CCRF-CEM/VM2 = test: Cell growth inhibition, resistant subline; type: cell-based, human
Method: as §4, §5

[6] = tested on: CCRF-CEM/VM1 (teniposide-resistant subline); test: Tumor cell growth inhibition in vitro (XTT, 72 h); type: cell-based, human; conditions: Homo sapiens, CCRF-CEM, 72 h
Method: as §4, §5

[7] = tested on: CCRF-CEM human T-cell acute lymphoblastic leukemia cells; test: Tumor cell growth inhibition in vitro (XTT, 72 h); type: cell-based; conditions: for IC50: CCRF-CEM, 72 h incubation
Method: as §4, §5

[8] = tested on: PC-3 prostate adenocarcinoma xenograft; test: Human tumor xenograft in nude mice; type: in vivo; conditions: PC-3, i.v. infusion
Method: as §1
(§6) Athymic nude mice bearing the nu/nu gene were used for all human tumor xenografts. Outbred, Swiss-background mice were obtained from Charles River Laboratories. Male mice 8 weeks or older weighing 22 g and up were used for most experiments. The drug was administered via the tail vein for 6 hr.-i.v. infusion. Each individual mouse was confined in a perforated Falcon polypropylene tube restrainer for drug administration. Tumor volume was assessed by measuring length×width×height (or width) using a caliper. The programmable Harvard PHD2000 syringe pump (Harvard Apparatus) with multi-track was used for i.v. infusion. […] All animal studies were conducted in accordance with the guidelines of the National Institutes of Health “Guide for the Care and Use of Animals” and the protocol approved by the Memorial Sloan-Kettering Cancer Center's Institutional Animal Care and Use Committee. In keeping with the policy of this committee for the humane treatment of tumor-bearing animals, mice were euthanized when tumors reached ≧10% of their total body weight.
as §2

[9] = tested on: A549 lung carcinoma xenograft; test: Human tumor xenograft in nude mice; type: in vivo; conditions: A549, i.v. infusion
Method: as §1, §6, §2

[10] = tested on: K562 human chronic myeloblastic leukemia; test: Tumor cell growth inhibition in vitro; type: cell-based; conditions: Homo sapiens, K562, K562
Method: as §3

[11] = tested on: CCRF-CEM/Taxol (paclitaxel-resistant subline); test: Tumor cell growth inhibition in vitro (XTT, 72 h); type: cell-based, human
Method: as §4, §5

[12] = tested on: CCRF-CEM/VBL100 (vinblastine-resistant subline); test: Tumor cell growth inhibition in vitro (XTT, 72 h); type: cell-based, human
Method: as §4, §5

tubulin = test: Tubulin-binding / tubulin polymerization assay; type: biochemical

For `CC[C@@]1(O)C(=O)OCc2c1cc1n(c2=O)Cc2cc3ccccc3nc2-1` [Camptothecin, camptothecin, reference compound], the “Therapeutic Effect Rank Order” value ([1]; i.p., ref 19 (Table 5)) was “dEpoB>Camptothecin>Adriamycin>Taxol” and the “Therapeutic Effect Rank Order” value [2] was “dEpoB>Camptothecin>Taxol>VBL, EpoB”.
In the case of `C/C(=C\c1csc(C)n1)[C@@H]1C[C@@H]2O[C@]2(C)CCC[C@H](C)[C@H](O)[C@@H](C)C(=O)C(C)(C)[C@@H](O)CC(=O)O1` [EpoB, epothilone B, reference compound], the “drop in body-weight that led to lethality” value [3] is reported as 14-20%, the IC50 [4] is reported as 1.84 nM and the “Therapeutic Effect Rank Order” value [2] is reported as “dEpoB>Camptothecin>Taxol>VBL, EpoB”. For the same molecule, the IC50 [5] was 0.58 nM, the IC50 (UL-3-B/Taxol; UL-3-B/Taxol) was 1.24 nM and the “cross-resistance (fold of resistance vs parent cell line)” value (UL-3-B/Taxol; UL-3-B/Taxol vs UL-3-C) was 2.1 x. For the same molecule, the “Therapeutic Effect Rank Order” value (B16 Melanoma) was “dEpoB>Taxol>>EpoB”.
With `COc1cc([C@@H]2c3cc4c(cc3[C@@H](O[C@@H]3O[C@@H]5CO[C@@H](C)O[C@H]5[C@H](O)[C@H]3O)[C@H]3COC(=O)[C@H]23)OCO4)cc(OC)c1O` [Etoposide, etoposide, reference compound] the “fold resistance vs original CCRF-CEM” value (CCRF-CEM/VM2; CCRF-CEM/VM2) was 69 fold, the IC50 (CCRF-CEM/VM2; Homo sapiens, CCRF-CEM/VM2, exposed to teniposide 12 months) was 19800 nM and the “Therapeutic Effect Rank Order” value ([1]; i.v. infusion) was “dEpoB>>VP-16, Taxol>VBL, Adriamycin”. The IC50 [6] was 3440 nM, the IC50 [7] was 29 nM and the “Therapeutic Effect Rank Order” value [8] was “Taxol, VBL>dEpoB>>VP-16”. The “Therapeutic Effect Rank Order” value [9] was “Taxol, dEpoB, VBL>VP-16”.
For `C/C1=C/CC(/C(C)=C/c2csc(C)n2)NC(=O)CC(O)C(C)(C)C(=O)[C@H](C)[C@@H](O)[C@@H](C)CCC1` (stereo partly drawn) [aza-dEpoB, 12,13,15-desoxy-15(S)-aza-epothilone B], the IC50 [10] was 2.4 nM, the “cross-resistance (fold of resistance vs parent cell line)” value ([11]; CCRF-CEM/Taxol vs CCRF-CEM) was 38.4 x and the IC50 ([11]; Homo sapiens, CCRF-CEM, 72 h) was 791 nM. The “cross-resistance (fold of resistance vs parent cell line)” value ([12]; CCRF-CEM/VBL100 vs CCRF-CEM) was 35.8 x, the IC50 ([12]; Homo sapiens, CCRF-CEM, 72 h) was 997 nM and the IC50 ([7]; Homo sapiens, 72 h) was 27.8 nM. For the same molecule, the “potency relative to aza-EpoB (fold less potent)” value ([7]; in vitro cell lines) was “about 10 fold”.
For `C/C1=C/CC(/C(C)=C/c2csc(COC(=O)c3c(F)c(F)c(N=[N+]=[N-])c(F)c3F)n2)OC(=O)CC(O)C(C)(C)C(=O)C(C)C(O)[C@@H](C)CCC1` (stereo partly drawn) [compound 66], the “induction of tubulin polymerization” value (tubulin) was “did not induce tubulin polymerization”.
